Measurements taken from patent publication US7371364B2, “Cyclic peptide and imaging compound compositions and uses for targeted imaging and therapy” (Board of Regents, The University of Texas System, priority 2003, dated 2008).
Each block holds one molecule with its values, some of them ahead of it. Residues, ends and D or L forms follow the SMILES beside them.

Experiments:
[1] = target: αvβ3 integrin (on KS1767 cells) (UniProt P06756); experiment: cell-based or functional assay
[2] = system: integrin-positive M21 melanoma; experiment: In vivo NIR imaging of human melanoma xenograft, integrin-positive; design: species or system mice; conditions: for Visualization of tumor in NIR image: M21 melanoma, 24 hr after i.v. injection, 3 nmol/mouse
Source text: (§1) In vivo fluorescence imaging was accomplished by illuminating the animal with light from a laser diode (35 mW) expanded to an approximate 8 cm diameter circular area. The fluorescent light re-emitted from the animal was collected by an image intensifier (model FS9910C, ITT Night Vision, Roanoke, Va.) lens-coupled to a CCD camera (model CH350, Photometrics, Tucson, Ariz.). The imaging was designed so that the field of view could be varied from 3×3 cm to over 12×12 cm by varying the image distance of the 50 mm lens used to focus the image onto the photocathode of the intensifier. The lens was fitted with a holographic notch-plus filter (660 nm center wavelength; Kaiser Optical Systems, Inc., Ann Arbor, Mich.) and a bandpass filter (710 nm center wavelength) to reject back-scattered and reflected excitation photons. Image acquisition was accomplished using V++ software (Digital Optics, Auckland, New Zealand) and the obtained images were stored in uncompressed tagged image file format (tiff). Data processing and analysis were accomplished using Matlab software (The MathWorks, Inc., Natick, Mass.). For all imaging sessions, the image acquisition parameters were kept constant, and each image required 800 ms of camera integration.

KS1767 tumors [3] = experiment: In vivo NIR imaging of subcutaneous KS1767 tumors with RGD imaging agent; design: species or system mice
Source text: Cy5.5-c(KRGDf; SEQ ID NO. 3) may be used in near infrared (NIR) imaging. Mice inoculated with KS1767 were used for in vivo NIR studies. The mice were four to six week-old athymic nude mice (18-22 g, Harlan Sprague Dawley, Inc. Indianapolis, Ind.) which were housed 5 per cage and fed with sterilized pellet chow (Harlan Sprague Dawley) and sterilized water. The animals were maintained in a pathogen-free mouse colony in the Department of Veterinary Medicine at the University of Texas M.D. Anderson Cancer Center. All experiments were performed in accordance with the guidelines of the Institutional Animal Care and Use Committee.
Tumor cells for use in the animals were harvested near confluence by incubation with 0.05% trypsin-EDTA. Cells were pelleted by centrifugation at 450×g for 5 minutes and resuspended in sterile PBS. […] cells/animal were implanted subcutaneously into the chest wall or hind legs of the mice. Imaging studies were performed when tumors reached 4-6 mm in average diameter.
as §1
For dynamic in vivo fluorescence imaging, mice were anesthetized with an i.p. injection of 50 mg/kg pentobarbital, and a catheter was placed in the tail vein for i.v. injection of NIR dyes. A white-light image of the animal was obtained using a low-power lamp as a white light source with holographic and interference filters removed. Fluorescence images were then acquired as a function of time following administration of Cy5.5 (6 nmol per/mouse) or Cy5.5-c(KRGDf; SEQ ID NO. 3) (6 nmol per/mouse). […]

αvβ3 integrin = target: T1, αvβ3 integrin (Homo sapiens, UniProt P05106+P06756); experiment: In vitro blockage study of Cy5.5-c(KRGDf) binding to KS1767 cells (fluorescence microscopy); assay type: cell-based
T1 construct: endogenous in cells; host or cells: KS1767 sarcoma cells
Method: KS1767 sarcoma cells were maintained at 37° C. in a humidified atmosphere containing 5% CO2 in Dulbecco's Modified Eagle's Medium/Nutrient Mixture F-12 Ham (DMEM/F12) and 10% FBS (Gibco, Grand Island, N.Y.).
Cells were seeded on cover slips in 24-well plates (Becton Dickinson Labware, Franklin Lakes, N.J.) and incubated in DMEM/F12 culture medium (0.5 ml/well) overnight. Unconjugated c(KRGDf; SEQ ID NO. 3) was added to the culture medium at various concentrations. Cy5.5-c(KRGDf; SEQ ID NO. 3) was added one hour later to each well at a concentration of 6 μM. Cells were washed twice with PBS and incubated in a solution of Sytox Green in 95% ethyl alcohol (1 μM, Molecular Probe, Eugene, Oreg.) for 15 minutes to fix and stain cell nuclei. Cells were washed again with PBS and the cover slips were mounted for microscopic examination using a DMR microscope (Leica Microsystems Inc., Bannockburn, Ill.). The microscope was equipped with a 75W Xenon lamp, 775 nm/845 nm, 560 nm/645 nm, and 480 nm/535 nm (Excitation/emission) filters (Chroma Technology Corp., Brattleboro, Vt.), a Hamamatsu B/W Chilled CCD Camera (Hamamatsu Photonics K.K., Hamamatsu City, Japan), and an Image-Pro Plus 4.5.1 software (Media Cybernetics, Silver Spring, Md.). In the multiple staining images, Cy5.5 was pseudocolored red and Sytox Green was green.

KS1767 tumors [4] = experiment: Dynamic in vivo NIR imaging, tumor ROI versus normal muscle ROI; design: species or system mice
Method: For dynamic in vivo fluorescence imaging, mice were anesthetized with an i.p. injection of 50 mg/kg pentobarbital, and a catheter was placed in the tail vein for i.v. injection of NIR dyes. A white-light image of the animal was obtained using a low-power lamp as a white light source with holographic and interference filters removed. Fluorescence images were then acquired as a function of time following administration of Cy5.5 (6 nmol per/mouse) or Cy5.5-c(KRGDf; SEQ ID NO. 3) (6 nmol per/mouse). For blocking studies, c(KRGDf; SEQ ID NO. 3) (600 nmol/mouse) was injected intravenously at 1 hr and 24 hr prior to the injection of Cy5.5-c(KRGDf; SEQ ID NO. 3). The acquisition time was 800 ms. Images were obtained every 6 seconds (s) for up to 20 minutes (min) following injection of each imaging agent. Each mouse was imaged again 24 hr after contrast injection.
Two regions of interest (ROI) were selected for quantitative analyses. One ROI was located entirely within the circumference of the tumor, and the other, of approximate equivalent size, defined a symmetric region of normal tissue located opposite the tumor site. (See FIG. 32A.) Utilizing Matlab software, the mean of the fluorescence intensity within each ROI was computed for every fluorescence image acquired. Data were acquired from the tumor ROI. (See FIG. 32B.) Data were acquired from normal muscle ROI. […] The symbols denote experimental measurements while the solid line denotes the corresponding least-squares fit. Animals were injected with Cy5.5-c(KRGDf; SEQ ID NO. 3) alone (6 nmol) (□), or Cy5.5-cc(KRGDf; SEQ ID NO. 3) 1 hr (∘) and 24 hr (⋄) after the injection of unconjugated c(KRGDf; SEQ ID NO. 3) peptide (600 nmol).

KS1767 cells = assay type: cell-based; conditions: 1 h
Method: A Cell Adhesion Assay was additionally performed. KS1767 cells were seeded in DMEM/F12 culture medium supplemented with 10% fetal bovine serum for 24 hr. Cells (1×10^5) with different concentrations of c(KRGDf; SEQ ID NO. 3) or Cy5.5-c(KRGDf; SEQ ID NO. 3) were added to vitronectin-coated microliter wells under serum-free conditions and incubated at 37° C. for 1 hr. After washing steps, the bound cells were stained with 5% crystal violet, followed by addition of 0.1M HCl to each well. The concentrations of crystal violet were determined by UV/V is absorption at 627 nm. IC50 values were estimated from the dose-activity curves.

[5] = Stability assay in serum-containing culture medium (HPLC); assay type: in vitro ADME; conditions: 25° C.; for Degradation in culture medium: 3 hours
Method: Each test peptide was incubated in a serum-containing culture medium (Dulbecco's Modified Eagle's Medium/Nutrient Mixture F-12 Ham and 10% FBS) (1 mg/ml) at 25° C. At various time intervals, aliquots of peptide solution (50 μL) were withdrawn and subjected to HPLC analysis. The percentage of remaining intact peptide was recorded as a function of time.

[6] = system: integrin-negative M21-L melanoma; experiment: In vivo NIR imaging of human melanoma xenograft, integrin-negative; design: species or system mice
Source text: as §1

Chain of αvβ3 integrin (on KS1767 cells) (P06756 31-1048, chain 1 of 2): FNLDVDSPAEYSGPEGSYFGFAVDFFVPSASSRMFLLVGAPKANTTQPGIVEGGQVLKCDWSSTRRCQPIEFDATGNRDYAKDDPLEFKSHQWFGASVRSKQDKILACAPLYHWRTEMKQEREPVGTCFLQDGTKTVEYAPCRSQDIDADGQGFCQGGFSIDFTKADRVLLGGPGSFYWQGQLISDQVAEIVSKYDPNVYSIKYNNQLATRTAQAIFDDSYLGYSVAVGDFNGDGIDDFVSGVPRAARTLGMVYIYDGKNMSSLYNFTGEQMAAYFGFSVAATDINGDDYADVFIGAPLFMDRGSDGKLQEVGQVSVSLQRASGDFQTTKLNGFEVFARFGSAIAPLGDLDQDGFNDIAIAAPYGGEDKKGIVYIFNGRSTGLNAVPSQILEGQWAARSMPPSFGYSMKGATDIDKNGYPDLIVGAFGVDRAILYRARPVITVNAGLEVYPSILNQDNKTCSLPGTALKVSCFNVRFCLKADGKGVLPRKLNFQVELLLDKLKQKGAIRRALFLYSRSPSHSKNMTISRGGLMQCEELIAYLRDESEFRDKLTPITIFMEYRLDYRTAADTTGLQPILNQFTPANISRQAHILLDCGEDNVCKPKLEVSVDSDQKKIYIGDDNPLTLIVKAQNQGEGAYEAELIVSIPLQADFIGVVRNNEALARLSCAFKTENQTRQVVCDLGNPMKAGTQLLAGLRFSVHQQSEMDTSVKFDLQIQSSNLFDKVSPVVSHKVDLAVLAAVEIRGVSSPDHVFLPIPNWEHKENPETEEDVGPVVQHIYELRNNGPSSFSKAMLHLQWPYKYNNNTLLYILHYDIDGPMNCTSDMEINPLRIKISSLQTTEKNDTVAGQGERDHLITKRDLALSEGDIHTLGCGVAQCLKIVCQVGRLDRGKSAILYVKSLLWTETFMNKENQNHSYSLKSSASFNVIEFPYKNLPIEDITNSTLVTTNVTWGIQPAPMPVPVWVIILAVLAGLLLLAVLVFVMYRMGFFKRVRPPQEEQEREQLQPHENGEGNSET
Chain of αvβ3 integrin (on KS1767 cells) (P05106 27-788, chain 2 of 2, further chain): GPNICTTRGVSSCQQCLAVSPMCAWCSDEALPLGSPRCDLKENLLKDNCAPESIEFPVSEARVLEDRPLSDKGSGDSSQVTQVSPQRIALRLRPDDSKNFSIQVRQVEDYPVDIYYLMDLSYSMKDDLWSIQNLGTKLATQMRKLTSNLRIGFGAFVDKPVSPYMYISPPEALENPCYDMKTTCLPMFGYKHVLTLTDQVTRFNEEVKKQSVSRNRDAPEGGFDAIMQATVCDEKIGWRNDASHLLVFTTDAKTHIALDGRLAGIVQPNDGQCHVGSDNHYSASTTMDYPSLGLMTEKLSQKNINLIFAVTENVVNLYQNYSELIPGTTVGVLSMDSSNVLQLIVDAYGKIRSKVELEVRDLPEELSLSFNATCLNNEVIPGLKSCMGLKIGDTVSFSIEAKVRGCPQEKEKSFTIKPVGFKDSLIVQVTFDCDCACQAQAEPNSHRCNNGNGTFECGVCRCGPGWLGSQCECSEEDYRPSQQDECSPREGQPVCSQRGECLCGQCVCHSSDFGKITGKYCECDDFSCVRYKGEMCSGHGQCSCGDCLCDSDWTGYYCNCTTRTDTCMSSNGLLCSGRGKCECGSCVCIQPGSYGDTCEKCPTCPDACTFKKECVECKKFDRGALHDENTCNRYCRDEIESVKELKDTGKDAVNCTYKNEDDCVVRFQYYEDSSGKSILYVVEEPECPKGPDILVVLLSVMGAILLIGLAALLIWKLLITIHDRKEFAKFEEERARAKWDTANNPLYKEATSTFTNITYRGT
T1 sequence (P06756 31-889 limits assumed): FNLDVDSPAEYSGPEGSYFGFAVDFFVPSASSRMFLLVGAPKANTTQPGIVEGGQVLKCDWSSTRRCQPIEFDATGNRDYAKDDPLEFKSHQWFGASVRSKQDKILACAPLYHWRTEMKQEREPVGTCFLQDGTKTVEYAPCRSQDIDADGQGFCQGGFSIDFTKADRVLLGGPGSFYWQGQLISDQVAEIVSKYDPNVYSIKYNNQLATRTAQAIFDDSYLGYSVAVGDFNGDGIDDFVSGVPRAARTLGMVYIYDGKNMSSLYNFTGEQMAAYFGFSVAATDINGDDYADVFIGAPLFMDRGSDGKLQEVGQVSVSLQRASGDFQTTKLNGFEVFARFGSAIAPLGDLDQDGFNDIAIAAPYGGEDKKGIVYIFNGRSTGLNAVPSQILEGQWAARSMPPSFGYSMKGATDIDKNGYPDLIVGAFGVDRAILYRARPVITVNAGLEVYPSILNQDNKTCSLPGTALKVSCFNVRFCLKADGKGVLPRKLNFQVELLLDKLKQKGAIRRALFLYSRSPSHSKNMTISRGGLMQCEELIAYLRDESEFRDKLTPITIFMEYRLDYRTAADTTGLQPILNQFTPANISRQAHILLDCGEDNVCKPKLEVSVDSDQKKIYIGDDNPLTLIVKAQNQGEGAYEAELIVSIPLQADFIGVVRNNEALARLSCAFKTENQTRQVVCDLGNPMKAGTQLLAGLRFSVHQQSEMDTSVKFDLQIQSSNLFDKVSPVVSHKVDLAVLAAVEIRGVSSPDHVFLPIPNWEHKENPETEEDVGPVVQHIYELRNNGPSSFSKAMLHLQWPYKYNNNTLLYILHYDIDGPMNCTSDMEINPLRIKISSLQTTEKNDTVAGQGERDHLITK
T1 sequence (P06756 891-1048 partner limits assumed): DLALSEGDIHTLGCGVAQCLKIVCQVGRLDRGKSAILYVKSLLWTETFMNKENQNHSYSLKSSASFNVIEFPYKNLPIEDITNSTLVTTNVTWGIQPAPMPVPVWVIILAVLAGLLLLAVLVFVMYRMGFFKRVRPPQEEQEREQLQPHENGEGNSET
T1 sequence (P05106 27-788): as the sequence (P05106 27-788, chain 2 of 2, further chain) above

IC50 of inhibition of adhesion of KS1767 cells to vitronectin-coated microplate wells [1]: 1.11 µM
Molecule: Cy5.5-c(KRGDf; SEQ ID NO. 3) (peptide)

Molecule: CC1(C)C(/C=C/C2=C(Oc3ccc(S(=O)(=O)O)cc3)C(=C/C=C3/N(CCCCS(=O)(=O)O)c4ccc(S(=O)(=O)[O-])cc4C3(C)C)/CCC2)=[N+](CCCCCC(=O)O)c2ccc(S(=O)(=O)O)cc21 [IRDye800, reference compound]
Visualization of tumor in NIR image [2]: did not have detectable signal

In vitro binding to αvβ3 (αvβ3 integrin; KS1767 cells, 6 μM imaging agent): demonstrated
IC50 (KS1767 cells): ~1.11 µM
Molecule: CC[N+]1=C(C=CC=CC=C2N(CCCCCC(=O)NCCCC[C@@H]3NC(=O)[C@@H](Cc4ccccc4)NC(=O)[C@H](CC(=O)O)NC(=O)CNC(=O)[C@H](CCCNC(=N)N)NC3=O)c3ccc4c(S(=O)(=O)O)cc(S(=O)(=O)O)cc4c3C2(C)C)C(C)(C)c2c1ccc1c(S(=O)(=O)[O-])cc(S(=O)(=O)O)cc21 [Cy5.5-c(KRGDf; SEQ ID NO. 3)]
Localization in excised tumor and adjacent muscle tissue (fluorescence microscopy) (KS1767 tumors [3]; ex vivo, KS1767 tumor excised 48 hr after i.v. injection): localized to the tumor, but not to the muscle cells
Tumor targeting / uptake in NIR image (KS1767 tumors [3]; subcutaneous KS1767 tumors, i.v. 6 nmol/mouse, image 24 hours after injection): clearly showed targeting
Rate of uptake in KS1767 tumors compared with muscle (KS1767 tumors [4]; 6 nmol/mouse i.v., dynamic imaging up to 20 min): faster
Rate of uptake in the tumor after preinjection of c(KRGDf) (KS1767 tumors [4]; c(KRGDf) 600 nmol, interval between injections 24 hr): partially recovered

Degradation in culture medium [5]: no apparent degradation
Degradation over the course of the study ([5]; 5 days): no degradation
Molecule: CC(C)C[C@@H]1NC(=O)[C@H]([C@@H](C)O)NC(=O)[C@H](Cc2ccccc2)NC(=O)CNC(=O)[C@H](Cc2c[nH]c3ccccc23)NC(=O)[C@H](Cc2c[nH]cn2)NC(=O)[C@H]([C@@H](C)O)NC(=O)[C@H]([C@@H](C)O)NC(=O)[C@H](C)NC(=O)CCNC1=O [c(ATTHWGFTLβA; SEQ ID NO. 2)] (HELM PEPTIDE1{A.T.T.H.W.G.F.T.L.[bAla]}$PEPTIDE1,PEPTIDE1,1:R1-10:R2$$$V2.0; bridges inferred)

IC50 (KS1767 cells): ~2.58 µM
Molecule: CC1(C)C(=CC=C2CCCC(C=CC3=[N+](CCCCS(=O)(=O)O)c4ccc(S(=O)(=O)[O-])cc4C3(C)C)=C2Oc2ccc(S(=O)(=O)O)cc2)N(CCCCCC(=O)NCCCC[C@@H]2NC(=O)[C@@H](Cc3ccccc3)NC(=O)[C@H](CC(=O)O)NC(=O)CNC(=O)[C@H](CCCNC(=N)N)NC2=O)c2ccc(S(=O)(=O)O)cc21 [IRDye800-c(KRGDf; SEQ ID NO. 3)]
Visualization of tumor in NIR image [2]: clearly visualized
Tumor-to-background ratio ([2]; mice with M21 tumors, from fluorescence intensity in region-of-interest): 1.7
Visualization of tumor in NIR image ([6]; M21-L melanoma, 24 hr after i.v. injection, 3 nmol/mouse): not
Tumor-to-background ratio ([6]; mice with M21-L tumors, from fluorescence intensity in region-of-interest): 1.1

Blockage of Cy5.5-c(KRGDf) binding to KS1767 cells (αvβ3 integrin; unconjugated peptide added one hour before 6 μM Cy5.5-c(KRGDf)): dose-dependent blockage
IC50 (KS1767 cells): ~2.47 µM
Molecule: N=C(N)NCCC[C@@H]1NC(=O)[C@H](CCCCN)NC(=O)[C@@H](Cc2ccccc2)NC(=O)[C@H](CC(=O)O)NC(=O)CNC1=O [c(KRGDf; SEQ ID NO. 3), cyclo(Lys-Arg-Gly-Asp-phe), reference compound]
Effect of pretreatment on uptake of fluorophores in KS1767 tumors (KS1767 tumors [3]; 100-fold c(KRGDf) injected 1 hour before Cy5.5-c(KRGDf)): blocked the uptake
Effect of preinjection on uptake of Cy5.5-c(KRGDf) in the tumor (KS1767 tumors [4]; c(KRGDf) 600 nmol, interval between injections 1 hr): blocked the uptake

IC50 of inhibition of adhesion of KS1767 cells to vitronectin-coated microplate wells [1]: 2.47 µM
Molecule: cyclo(Lys-Arg-Gly-Asp-phe), c(KRGDf; SEQ ID NO. 3) (peptide)

Degradation in culture medium [5]: degrades completely
metabolised at 3 h, 1 mg/ml ([5]; serum-containing culture medium (DMEM/F-12 Ham with 10% FBS), after 3 hours, read-out: Peptide degraded): > 90%
Molecule: CC(C)C[C@@H]1NC(=O)[C@H]([C@@H](C)O)NC(=O)[C@H](Cc2ccccc2)NC(=O)CNC(=O)[C@H](Cc2c[nH]c3ccccc23)NC(=O)[C@H](Cc2c[nH]cn2)NC(=O)[C@H]([C@@H](C)O)NC(=O)[C@H]([C@@H](C)O)NC(=O)[C@@H](N)CSSC[C@@H](C(N)=O)NC1=O [c(CTTHWGFTLC; SEQ ID NO. 1), reference compound] (HELM PEPTIDE1{C.T.T.H.W.G.F.T.L.C.[am]}$PEPTIDE1,PEPTIDE1,1:R3-10:R3$$$V2.0)
